Test results from patent US20240398828A1, “HETERO-ATOM CONTAINING COMPOUNDS AND USES THEREOF” (Kumquat Biosciences Inc., priority 2021, published 2024).

How the values were obtained:
[1] = molecular target: T1, PTPN2 (i.e., TC-PTP) (Homo sapiens, UniProt P17706); assay: Phosphatase activity assay (DiFMUP substrate), PTPN2; format: biochemical; conditions: compounds binned ≤1 uM or >1 uM
T1 sequence (P17706 1-415): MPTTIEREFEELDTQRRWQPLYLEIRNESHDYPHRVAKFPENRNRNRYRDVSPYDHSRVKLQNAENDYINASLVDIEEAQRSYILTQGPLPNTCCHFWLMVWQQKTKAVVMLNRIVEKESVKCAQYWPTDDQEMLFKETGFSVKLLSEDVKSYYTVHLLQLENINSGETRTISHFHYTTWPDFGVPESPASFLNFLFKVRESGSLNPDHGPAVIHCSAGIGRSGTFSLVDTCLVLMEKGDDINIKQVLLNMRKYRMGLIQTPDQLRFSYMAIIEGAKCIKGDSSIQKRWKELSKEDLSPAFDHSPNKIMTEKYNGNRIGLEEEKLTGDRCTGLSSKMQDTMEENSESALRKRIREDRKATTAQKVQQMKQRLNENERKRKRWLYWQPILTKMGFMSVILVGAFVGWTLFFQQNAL
Experimental: (§1) The selectivity and potency of a small molecule PTPN2 inhibitor as provided herein against one or more protein tyrosine phosphatase (PTP) enzymes, and specifically against PTPN2, is assessed in various ways. The one or more PTP enzymes comprise Mycobacterium protein tyrosine phosphatase A (mPTPA), Mycobacterium protein tyrosine phosphatase B (mPTPB), PTPN1 (i.e., PTP1B), PTPN2 (i.e., TC-PTP), PTPN22 (i.e., LYP), SHP-1, SHP-2, FAP-1, Meg2, HePTP, Laforin, VHX, VHR, LMWPTP, Cdc14A, LAR, CD45, PTPRG, a fragment thereof, a variant thereof, and a combination thereof. Selectivity and potency of a small molecule PTPN2 inhibitor is evaluated using a PTP activity inhibition assay. The assay is performed using a buffer comprising 50 mM HEPES buffer pH 7.5, 150 mM NaCl, 0.5 mM EDTA, 1 mM DTT, 0.001% Tween-20.
(§2) The assay is performed using a phosphated substrate, e.g., 10 mM 6,8-Difluoro-4-Methylumbelliferyl Phosphate (DIFMUP) that is stored at −20° C. Alternatively or in addition to, the assay is performed using other phosphated substrate (e.g., fluorescein diphosphate). Each PTP enzyme is diluted in the assay buffer
(§3) The assay can be carried out at room temperature in multiplate format, e.g., using 384 well plates. A small molecule PTPN2 inhibitor dissolved in DMSO at one of 10 concentrations from a serial dilution or DMSO alone for control is added to each well. A mixture of the assay buffer comprising PTP enzyme (e.g., 0.025 ng/ul PTPN2) is added to each well and mixed for approximately 2 minutes. The reaction is initiated by adding DiFMUP diluted in the assay buffer to a final concentration of approximately 45 μM DiFMUP in PTPN2 assay. For each PTP enzyme, DiFMUP is added at the Km (Michaelis constant) of the enzyme that had been independently determined. The phosphatase activity of the PTP enzyme is assessed by monitoring appearance of a fluorescent product (6,8-difluoro-7-hydroxyl-4-coumarin (DiFMU) from DiFMUP) continuously for about 15 to 30 minutes, using the INFINITE M1000Pro plate reader (Tecan) with excitation at 360 nm and emission at 450 nm (cutoff filter at 435 nm) for DiFMU. Each assay is performed at least in duplicate. The rate (e.g., the initial rate) of DiFMU formation is plotted against the concentration of the small molecule PTPN2 inhibitor, and the data is fitted (e.g., using a 4-parameter equation) to determine the inflection point of the fit as the IC50 of the small molecule PTPN2 inhibitor for a specific enzyme. Utilizing this assay, the ability of the compounds in Table 2 to inhibit PTPN2 and PTP1B has been assessed. Table 3 summarizes the IC50 values.

[2] = molecular target: T2, PTPN1 (i.e., PTP1B) (Homo sapiens, UniProt P18031); assay: Phosphatase activity assay (DiFMUP substrate), PTP1B; format: biochemical; conditions: compounds binned ≤1 uM or >1 uM
T2 sequence (P18031 1-435): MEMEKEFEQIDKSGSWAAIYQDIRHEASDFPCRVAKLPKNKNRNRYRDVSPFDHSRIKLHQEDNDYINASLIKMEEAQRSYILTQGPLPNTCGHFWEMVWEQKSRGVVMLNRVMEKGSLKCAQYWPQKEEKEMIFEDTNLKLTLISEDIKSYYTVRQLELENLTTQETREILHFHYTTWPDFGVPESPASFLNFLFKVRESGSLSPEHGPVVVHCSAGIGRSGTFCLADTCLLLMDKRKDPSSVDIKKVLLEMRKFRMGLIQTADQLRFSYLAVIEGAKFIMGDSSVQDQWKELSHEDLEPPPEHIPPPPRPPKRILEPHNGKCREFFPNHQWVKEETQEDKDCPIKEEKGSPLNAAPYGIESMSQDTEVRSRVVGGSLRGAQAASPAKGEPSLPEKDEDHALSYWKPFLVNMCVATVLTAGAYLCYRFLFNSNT
Experimental: as §1, §2, §3

| IC50 [1] [nM] | IC50 [2] [nM] | Compound |
| --- | --- | --- |
| ≤ 1000 | ≤ 1000 | CN(C)C1(Cn2cc(-c3ccc(O)c(N4CC(=O)NS4(=O)=O)c3F)cn2)CCC1 [Compound 430, 5-(3-(1-((1-(dimethylamino)cyclobutyl)methyl)-1H-pyrazol-4-yl)-2-fluoro-6-hydroxyphenyl)-1,2,5-thiadiazolidin-3-one 1,1-dioxide] |
| ≤ 1000 | ≤ 1000 | N#CCn1nc(-c2ccc(O)c(N3CC(=O)NS3(=O)=O)c2F)cc1C1CC1 [Compound 349, 2-(5-cyclopropyl-3-(3-(1,1-dioxido-4-oxo-1,2,5-thiadiazolidin-2-yl)-2-fluoro-4-hydroxyphenyl)-1H-pyrazol-1-yl)acetonitrile] |
| ≤ 1000 | ≤ 1000 | O=C1CN(c2c(O)ccc(-c3cc(N4CCC(O)C4)n[nH]3)c2F)S(=O)(=O)N1 (stereo not drawn) [Compound 448, 5-(2-fluoro-6-hydroxy-3-(3-(3-hydroxypyrrolidin-1-yl)-1H-pyrazol-5-yl)phenyl)-1,2,5-thiadiazolidin-3-one 1,1-dioxide] |
| ≤ 1000 | ≤ 1000 | O=C1CN(c2c(O)ccc(-c3cc(N4CC5(COC5)C4)n[nH]3)c2F)S(=O)(=O)N1 [Compound 466, 5-(3-(3-(2-oxa-6-azaspiro[3.3]heptan-6-yl)-1H-pyrazol-5-yl)-2-fluoro-6-hydroxyphenyl)-1,2,5-thiadiazolidin-3-one 1,1-dioxide] |
| ≤ 1000 | ≤ 1000 | COc1ncc(-c2ccc(O)c(N3CC(=O)NS3(=O)=O)c2F)cn1 [Compound 118, 5-(2-fluoro-6-hydroxy-3-(2-methoxypyrimidin-5-yl)phenyl)-1,2,5-thiadiazolidin-3-one 1,1-dioxide] |
| ≤ 1000 | ≤ 1000 | O=C1CN(c2c(O)ccc(-c3cc(N4CCC5(COC5)C4)n[nH]3)c2F)S(=O)(=O)N1 [Compound 431, 5-(3-(3-(2-oxa-6-azaspiro[3.4]octan-6-yl)-1H-pyrazol-5-yl)-2-fluoro-6-hydroxyphenyl)-1,2,5-thiadiazolidin-3-one 1,1-dioxide] |
| ≤ 1000 | ≤ 1000 | Cn1nc(-c2ccc(O)c(N3CC(=O)NS3(=O)=O)c2F)cc1N [Compound 529, 5-(3-(5-amino-1-methyl-1H-pyrazol-3-yl)-2-fluoro-6-hydroxyphenyl)-1,2,5-thiadiazolidin-3-one 1,1-dioxide] |
| ≤ 1000 | ≤ 1000 | CC(C)c1cc(-c2ccc(O)c(N3CC(=O)NS3(=O)=O)c2F)nn1C [Compound 447, 5-(2-fluoro-6-hydroxy-3-(5-isopropyl-1-methyl-1H-pyrazol-3-yl)phenyl)-1,2,5-thiadiazolidin-3-one 1,1-dioxide] |
| ≤ 1000 | ≤ 1000 | O=C1CN(c2c(O)ccc(-c3cnn(C4CCC4)c3)c2F)S(=O)(=O)N1 [Compound 194, 5-(3-(1-cyclobutyl-1H-pyrazol-4-yl)-2-fluoro-6-hydroxyphenyl)-1,2,5-thiadiazolidin-3-one 1,1-dioxide] |
| ≤ 1000 | ≤ 1000 | O=C1CN(c2c(O)ccc(-c3cn(CC4CC4)nc3F)c2F)S(=O)(=O)N1 [Compound 233, 5-(3-(1-(cyclopropylmethyl)-3-fluoro-1H-pyrazol-4-yl)-2-fluoro-6-hydroxyphenyl)-1,2,5-thiadiazolidin-3-one 1,1-dioxide] |
| ≤ 1000 | ≤ 1000 | CC1C(=O)NS(=O)(=O)N1c1c(O)ccc(-c2cnn(Cc3cccc(F)c3)c2)c1F (stereo not drawn) [Compound 155, 5-(2-fluoro-3-(1-(3-fluorobenzyl)-1H-pyrazol-4-yl)-6-hydroxyphenyl)-4-methyl-1,2,5-thiadiazolidin-3-one 1,1-dioxide] |
| ≤ 1000 | ≤ 1000 | CC(C)CCNC1CCN(c2ccc(O)c(N3CC(=O)NS3(=O)=O)c2F)C1 (stereo not drawn) [Compound 163, 5-(2-fluoro-6-hydroxy-3-(3-(isopentylamino)pyrrolidin-1-yl)phenyl)-1,2,5-thiadiazolidin-3-one 1,1-dioxide] |
| ≤ 1000 | ≤ 1000 | O=C1C=C(c2c(O)ccc(-c3cc(C4CC4)n[nH]3)c2F)S(=O)(=O)N1 [Compound 400, 5-(3-(3-cyclopropyl-1H-pyrazol-5-yl)-2-fluoro-6-hydroxyphenyl)isothiazol-3(2H)-one 1,1-dioxide] |
| ≤ 1000 | ≤ 1000 | N#Cc1cc(-c2ccc(O)c(N3CC(=O)NS3(=O)=O)c2F)[nH]n1 [Compound 439, 5-(3-(1,1-dioxido-4-oxo-1,2,5-thiadiazolidin-2-yl)-2-fluoro-4-hydroxyphenyl)-1H-pyrazole-3-carbonitrile] |
| ≤ 1000 | ≤ 1000 | COCCS(=O)(=O)Nc1ccc(-c2ccc(O)c(N3CC(=O)NS3(=O)=O)c2F)cc1 [Compound 443, N-(3′-(1,1-dioxido-4-oxo-1,2,5-thiadiazolidin-2-yl)-2′-fluoro-4′-hydroxy-[1,1′-biphenyl]-4-yl)-2-methoxyethane-1-sulfonamide] |
| > 1000 | > 1000 | Cc1cc(O)c(N2CC(=O)NS2(=O)=O)cc1-c1cnn(C)c1 [Compound 358, 5-(2-hydroxy-4-methyl-5-(1-methyl-1H-pyrazol-4-yl)phenyl)-1,2,5-thiadiazolidin-3-one 1,1-dioxide] |
| ≤ 1000 | ≤ 1000 | O=C1CN(c2c(O)ccc(-c3cc(C4CCOCC4)n[nH]3)c2F)S(=O)(=O)N1 [Compound 420, 5-(2-fluoro-6-hydroxy-3-(3-(tetrahydro-2H-pyran-4-yl)-1H-pyrazol-5-yl)phenyl)-1,2,5-thiadiazolidin-3-one 1,1-dioxide] |
| ≤ 1000 | ≤ 1000 | O=C1CN(c2c(O)ccc(-c3cnn(C4CC5(CCC5)C4)c3)c2F)S(=O)(=O)N1 [Compound 242, 5-(2-fluoro-6-hydroxy-3-(1-(spiro[3.3]heptan-2-yl)-1H-pyrazol-4-yl)phenyl)-1,2,5-thiadiazolidin-3-one 1,1-dioxide] |
| ≤ 1000 | ≤ 1000 | O=C1CN(c2c(O)ccc(-c3cn(C4CCCC4)cn3)c2F)S(=O)(=O)N1 [Compound 302, 5-(3-(1-cyclopentyl-1H-imidazol-4-yl)-2-fluoro-6-hydroxyphenyl)-1,2,5-thiadiazolidin-3-one 1,1-dioxide] |
| ≤ 1000 | ≤ 1000 | O=C1CN(c2c(O)ccc(C3CCN(S(=O)(=O)C4CC4)C3)c2F)S(=O)(=O)N1 (stereo not drawn) [Compound 359, 5-(3-(1-(cyclopropylsulfonyl)pyrrolidin-3-yl)-2-fluoro-6-hydroxyphenyl)-1,2,5-thiadiazolidin-3-one 1,1-dioxide] |
| ≤ 1000 | ≤ 1000 | O=C1CN(c2c(O)ccc(-c3cc(C4CC4(F)F)nn3CC(F)F)c2F)S(=O)(=O)N1 (stereo not drawn) [Compound 491, 5-(3-(3-(2,2-difluorocyclopropyl)-1-(2,2-difluoroethyl)-1H-pyrazol-5-yl)-2-fluoro-6-hydroxyphenyl)-1,2,5-thiadiazolidin-3-one 1,1-dioxide] |
